# System: test plant species
# Assay: Post-emergent herbicidal activity test (greenhouse, foliar spray, visual growth reduction)
# Type: in vivo
# Details: post-emergence, 336 h, ECHCG: barnyardgrass (Echinochloa crus-galli), 140 g ai/ha, 14 days after application, read-out: Visual Growth Reduction (%) 14 Days After Application, ECHCG
# Method: Post-emergent Test: Seeds or nutlets of the desired test plant species were planted in Sun Gro Metro-Mix® 360 planting mixture, which typically has a pH of 6.0 to 6.8 and an organic matter content of about 30 percent, in plastic pots with a surface area of 64 square centimeters. In some aspects, to ensure good germination and healthy plants, a fungicide treatment and/or other chemical or physical treatment was applied. The plants were grown for 7-21 d in a greenhouse with an approximate 15 h photoperiod which was maintained at 23-29° C. during the day and 22-28° C. during the night. Nutrients and water were added on a regular basis and supplemental lighting was provided with overhead metal halide 1000-Watt lamps as necessary. Plants were used for testing when they reached the first or second true leaf stage. A weighed amount, determined by the highest rate to be tested, of each test compound was placed in a 25 mL glass vial and was dissolved in 4 mL of a 97:3 v/v mixture of acetone and DMSO to obtain concentrated stock solutions. […] The concentrated stock solutions obtained were diluted with 20 mL of an aqueous mixture containing acetone, water, isopropyl alcohol, DMSO, […] crop oil concentrate, and X-77 surfactant in a 48.5:39:10:1.5:1.0:0.02 v/v ratio to obtain spray solutions containing the application rate. Compound requirements are based upon a 12 mL application volume at a rate of 187 liters per hectare (L/ha). Formulated compounds were applied to the plant material with an overhead Mandel track sprayer equipped with […] nozzles calibrated to deliver 187 L/ha over an application area of 0.64 square meters at a spray height of 18 inches (43 cm) above the average plant canopy height. Control plants were sprayed in the same manner with the solvent blank. The treated plants and control plants were placed in a greenhouse as described above and watered by subirrigation to prevent wash-off of the test compounds. After 14 d, the condition of the test plants as compared with that of the nontreated and control plants was determined visually and scored on a scale of 0 to 100 percent where 0 corresponds to no injury and 100 corresponds to complete control. In the reporting of the results, Table A: Percent Growth Reduction Conversion Table was used.
row,Compound,pest or weed control at 140 g/ha
1,"COC(=O)c1nc(-c2ccc(C(F)(F)F)c3ccoc23)c(F)cc1Cl [F297, Methyl 3-chloro-5-fluoro-6-(4-(trifluoromethyl)benzofuran-7-yl) picolinate]",0 to 29%
2,"O=C(O)c1nc(-c2ccc(OC(F)(F)F)cc2Cl)ccc1Cl [F226, 3-Chloro-6-(2-chloro-4-4-(trifluoromethoxy)phenyl)picolinic acid]",60 to 74%

# Same assay, conditions: post-emergence, 336 h, IPOHE: ivy-leaf morning glory (Ipomoea hederacea), 140 g ai/ha, 14 days after application, read-out: Visual Growth Reduction (%) 14 Days After Application, IPOHE
row,Compound,pest or weed control at 140 g/ha
1,"COC(=O)c1nc(-c2ccc(C(F)(F)F)c3ccoc23)c(F)cc1Cl [F297, Methyl 3-chloro-5-fluoro-6-(4-(trifluoromethyl)benzofuran-7-yl) picolinate]",95 to 100%
2,"O=C(O)c1nc(-c2ccc(OC(F)(F)F)cc2Cl)ccc1Cl [F226, 3-Chloro-6-(2-chloro-4-4-(trifluoromethoxy)phenyl)picolinic acid]",95 to 100%

# Same assay, conditions: post-emergence, 336 h, KCHSC: kochia (Bassia scoparia), 140 g ai/ha, 14 days after application, read-out: Visual Growth Reduction (%) 14 Days After Application, KCHSC
row,Compound,pest or weed control at 140 g/ha
1,"COC(=O)c1nc(-c2ccc(C(F)(F)F)c3ccoc23)c(F)cc1Cl [F297, Methyl 3-chloro-5-fluoro-6-(4-(trifluoromethyl)benzofuran-7-yl) picolinate]",45 to 59%
2,"O=C(O)c1nc(-c2ccc(OC(F)(F)F)cc2Cl)ccc1Cl [F226, 3-Chloro-6-(2-chloro-4-4-(trifluoromethoxy)phenyl)picolinic acid]",60 to 74%

# Same assay, conditions: post-emergence, 336 h, ORYSA: rice (Oryza sativa), 140 g ai/ha, 14 days after application, read-out: Visual Growth Reduction (%) 14 Days After Application, ORYSA
row,Compound,pest or weed control at 140 g/ha
1,"COC(=O)c1nc(-c2ccc(C(F)(F)F)c3ccoc23)c(F)cc1Cl [F297, Methyl 3-chloro-5-fluoro-6-(4-(trifluoromethyl)benzofuran-7-yl) picolinate]",0 to 29%
2,"O=C(O)c1nc(-c2ccc(OC(F)(F)F)cc2Cl)ccc1Cl [F226, 3-Chloro-6-(2-chloro-4-4-(trifluoromethoxy)phenyl)picolinic acid]",0 to 29%

# Same assay, conditions: post-emergence, 336 h, SETFA: giant foxtail (Setaria faberi), 140 g ai/ha, 14 days after application, read-out: Visual Growth Reduction (%) 14 Days After Application, SETFA
row,Compound,pest or weed control at 140 g/ha
1,"COC(=O)c1nc(-c2ccc(C(F)(F)F)c3ccoc23)c(F)cc1Cl [F297, Methyl 3-chloro-5-fluoro-6-(4-(trifluoromethyl)benzofuran-7-yl) picolinate]",60 to 74%
2,"O=C(O)c1nc(-c2ccc(OC(F)(F)F)cc2Cl)ccc1Cl [F226, 3-Chloro-6-(2-chloro-4-4-(trifluoromethoxy)phenyl)picolinic acid]",85 to 94%

# Same assay, conditions: post-emergence, 336 h, SORVU: grain sorghum (Sorghum vulgare), 140 g ai/ha, 14 days after application, read-out: Visual Growth Reduction (%) 14 Days After Application, SORVU
row,Compound,pest or weed control at 140 g/ha
1,"COC(=O)c1nc(-c2ccc(C(F)(F)F)c3ccoc23)c(F)cc1Cl [F297, Methyl 3-chloro-5-fluoro-6-(4-(trifluoromethyl)benzofuran-7-yl) picolinate]",60 to 74%
2,"O=C(O)c1nc(-c2ccc(OC(F)(F)F)cc2Cl)ccc1Cl [F226, 3-Chloro-6-(2-chloro-4-4-(trifluoromethoxy)phenyl)picolinic acid]",85 to 94%

# Same assay, conditions: post-emergence, 336 h, STEME: common chickweed (Stellaria media), 140 g ai/ha, 14 days after application, read-out: Visual Growth Reduction (%) 14 Days After Application, STEME
row,Compound,pest or weed control at 140 g/ha
1,"COC(=O)c1nc(-c2ccc(C(F)(F)F)c3ccoc23)c(F)cc1Cl [F297, Methyl 3-chloro-5-fluoro-6-(4-(trifluoromethyl)benzofuran-7-yl) picolinate]",0 to 29%
2,"O=C(O)c1nc(-c2ccc(OC(F)(F)F)cc2Cl)ccc1Cl [F226, 3-Chloro-6-(2-chloro-4-4-(trifluoromethoxy)phenyl)picolinic acid]",0 to 29%

# Same assay, conditions: post-emergence, 336 h, TRZAS: wheat, spring (Triticum aestivum), 140 g ai/ha, 14 days after application, read-out: Visual Growth Reduction (%) 14 Days After Application, TRZAS
row,Compound,pest or weed control at 140 g/ha
1,"COC(=O)c1nc(-c2ccc(C(F)(F)F)c3ccoc23)c(F)cc1Cl [F297, Methyl 3-chloro-5-fluoro-6-(4-(trifluoromethyl)benzofuran-7-yl) picolinate]",0 to 29%
2,"O=C(O)c1nc(-c2ccc(OC(F)(F)F)cc2Cl)ccc1Cl [F226, 3-Chloro-6-(2-chloro-4-4-(trifluoromethoxy)phenyl)picolinic acid]",45 to 59%

# Same assay, conditions: post-emergence, 336 h, blackgrass (Alopecurus myosuroides), 14 Days After Application, 140 g ai/ha, read-out: Visual Growth Reduction (%) ALOMY
row,Compound,pest or weed control at 140 g/ha
1,"COC(=O)c1nc(-c2ccc(C(F)(F)F)c3ccoc23)c(F)cc1Cl [F297, Methyl 3-chloro-5-fluoro-6-(4-(trifluoromethyl)benzofuran-7-yl) picolinate]",0 to 29%
2,"O=C(O)c1nc(-c2ccc(OC(F)(F)F)cc2Cl)ccc1Cl [F226, 3-Chloro-6-(2-chloro-4-4-(trifluoromethoxy)phenyl)picolinic acid]",45 to 59%

# Same assay, conditions: post-emergence, 336 h, canada thistle (Cirsium arvense), 14 Days After Application, 140 g ai/ha, read-out: Visual Growth Reduction (%) CIRAR
row,Compound,pest or weed control at 140 g/ha
1,"COC(=O)c1nc(-c2ccc(C(F)(F)F)c3ccoc23)c(F)cc1Cl [F297, Methyl 3-chloro-5-fluoro-6-(4-(trifluoromethyl)benzofuran-7-yl) picolinate]",85 to 94%
2,"O=C(O)c1nc(-c2ccc(OC(F)(F)F)cc2Cl)ccc1Cl [F226, 3-Chloro-6-(2-chloro-4-4-(trifluoromethoxy)phenyl)picolinic acid]",85 to 94%

# Same assay, conditions: post-emergence, 336 h, crabgrass (Digitaria sanguinalis), 14 Days After Application, 140 g ai/ha, read-out: Visual Growth Reduction (%) DIGSA
row,Compound,pest or weed control at 140 g/ha
1,"COC(=O)c1nc(-c2ccc(C(F)(F)F)c3ccoc23)c(F)cc1Cl [F297, Methyl 3-chloro-5-fluoro-6-(4-(trifluoromethyl)benzofuran-7-yl) picolinate]",75 to 84%
2,"O=C(O)c1nc(-c2ccc(OC(F)(F)F)cc2Cl)ccc1Cl [F226, 3-Chloro-6-(2-chloro-4-4-(trifluoromethoxy)phenyl)picolinic acid]",95 to 100%

# Same assay, conditions: post-emergence, 336 h, lambsquarters (Chenopodium album), 14 Days After Application, 140 g ai/ha, read-out: Visual Growth Reduction (%) CHEAL
row,Compound,pest or weed control at 140 g/ha
1,"COC(=O)c1nc(-c2ccc(C(F)(F)F)c3ccoc23)c(F)cc1Cl [F297, Methyl 3-chloro-5-fluoro-6-(4-(trifluoromethyl)benzofuran-7-yl) picolinate]",85 to 94%
2,"O=C(O)c1nc(-c2ccc(OC(F)(F)F)cc2Cl)ccc1Cl [F226, 3-Chloro-6-(2-chloro-4-4-(trifluoromethoxy)phenyl)picolinic acid]",95 to 100%

# Same assay, conditions: post-emergence, 336 h, redroot pigweed (Amaranthus retroflexus), 14 Days After Application, 140 g ai/ha, read-out: Visual Growth Reduction (%) AMARE
row,Compound,pest or weed control at 140 g/ha
1,"COC(=O)c1nc(-c2ccc(C(F)(F)F)c3ccoc23)c(F)cc1Cl [F297, Methyl 3-chloro-5-fluoro-6-(4-(trifluoromethyl)benzofuran-7-yl) picolinate]",85 to 94%
2,"O=C(O)c1nc(-c2ccc(OC(F)(F)F)cc2Cl)ccc1Cl [F226, 3-Chloro-6-(2-chloro-4-4-(trifluoromethoxy)phenyl)picolinic acid]",60 to 74%

# Same assay, conditions: post-emergence, 336 h, wild oat (Avena fatua), 14 Days After Application, 140 g ai/ha, read-out: Visual Growth Reduction (%) AVEFA
row,Compound,pest or weed control at 140 g/ha
1,"COC(=O)c1nc(-c2ccc(C(F)(F)F)c3ccoc23)c(F)cc1Cl [F297, Methyl 3-chloro-5-fluoro-6-(4-(trifluoromethyl)benzofuran-7-yl) picolinate]",0 to 29%
2,"O=C(O)c1nc(-c2ccc(OC(F)(F)F)cc2Cl)ccc1Cl [F226, 3-Chloro-6-(2-chloro-4-4-(trifluoromethoxy)phenyl)picolinic acid]",45 to 59%

# Same assay, conditions: post-emergence, 336 h, yellow nutsedge (Cyperus esculentus), 14 Days After Application, 140 g ai/ha, read-out: Visual Growth Reduction (%) CYPES
row,Compound,pest or weed control at 140 g/ha
1,"COC(=O)c1nc(-c2ccc(C(F)(F)F)c3ccoc23)c(F)cc1Cl [F297, Methyl 3-chloro-5-fluoro-6-(4-(trifluoromethyl)benzofuran-7-yl) picolinate]",0 to 29%
2,"O=C(O)c1nc(-c2ccc(OC(F)(F)F)cc2Cl)ccc1Cl [F226, 3-Chloro-6-(2-chloro-4-4-(trifluoromethoxy)phenyl)picolinic acid]",0 to 29%

# — patent publication US20230017045A1, “PYRIDINE AND PYRIMIDINE CARBOXYLATE HERBICIDES AND METHODS OF USE THEREOF” (Dow AgroSciences LLC, priority 2017, published 2023)
